Assay results as given in patent US6355799B1, “Substituted benzene compounds, process for their preparation, and herbicidal and defoliant compositions containing them” (ISK Americas Incorporated, priority 1997, dated 2002).

What was measured:
Format in all cases: in vivo
[1] = system: large crabgrass (Digitaria sanguinalis, DIGSA); experiment: Pre-emerge test, greenhouse herbicide activity screening; conditions: pre-emerge; for Pre-emerge Herbicidal Activity DIGSA: phytotoxicity rating 0-100 at 14 days after application; for phytotoxicity rating DIGSA: 14 days after application, scale 0-100
In short: (§1)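 Visual ratings on a 0-100 scale (0 no damage, 100 all plants dead) were taken at 14 days after treatment. Rates of 15-1000 g ai/ha in acetone, 187 l/ha, were sprayed onto soil one day after planting (pre-emerge) or onto 2-3 leaf plants with 0.25% v/v surfactant (post-emerge).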

[2] = system: green foxtail (Setaria viridis, SETVI); experiment: as above; conditions: pre-emerge; for Pre-emerge Herbicidal Activity SETVI: phytotoxicity rating 0-100 at 14 days after application; for phytotoxicity rating SETVI: 14 days after application, scale 0-100
In short: as §1

[3] = system: lambsquarters (Chenopodium album, CHEAL); experiment: as above; conditions: pre-emerge; for Pre-emerge Herbicidal Activity CHEAL: phytotoxicity rating 0-100 at 14 days after application; for phytotoxicity rating CHEAL: 14 days after application, scale 0-100
In short: as §1

[4] = system: ivyleaf morningglory (Ipomoea hederacea, IPOHE); experiment: as above; conditions: pre-emerge; for Pre-emerge Herbicidal Activity IPOHE: phytotoxicity rating 0-100 at 14 days after application; for phytotoxicity rating IPOHE: 14 days after application, scale 0-100
In short: as §1

[5] = system: johnsongrass (Sorghum halepense, SORHA); experiment: as above; conditions: pre-emerge; for Pre-emerge Herbicidal Activity SORHA: phytotoxicity rating 0-100 at 14 days after application; for phytotoxicity rating SORHA: 14 days after application, scale 0-100
In short: as §1

[6] = system: sicklepod (Cassia obtusifolia, CASOB); experiment: as above; conditions: pre-emerge; for Pre-emerge Herbicidal Activity CASOB: phytotoxicity rating 0-100 at 14 days after application; for phytotoxicity rating CASOB: 14 days after application, scale 0-100
In short: as §1

[7] = system: barnyardgrass (Echinochloa crus-galli, ECHCG); experiment: as above; conditions: pre-emerge; for Pre-emerge Herbicidal Activity ECHCG: phytotoxicity rating 0-100 at 14 days after application; for phytotoxicity rating ECHCG: 14 days after application, scale 0-100
In short: as §1

[8] = system: velvetleaf (Abutilon theophrasti, ABUTH); experiment: as above; conditions: pre-emerge; for Pre-emerge Herbicidal Activity ABUTH: phytotoxicity rating 0-100 at 14 days after application; for phytotoxicity rating ABUTH: 14 days after application, scale 0-100
In short: as §1

[9] = system: large crabgrass (Digitaria sanguinalis, DIGSA); experiment: Post-emerge test, greenhouse herbicide activity screening; conditions: post-emerge; for Post-emerge Herbicidal Activity DIGSA: phytotoxicity rating 0-100 at 14 days after application; for DIGSA phytotoxicity rating: 14 days after application, rating scale 0-100
In short: (§2)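 Sandy loam pots; pre-emerge: sown 1 d pre-spray, surface-watered after, then bottom-watered. Post-emerge: sown 8–21 d before, 2–3 leaf stage, + 0.25% v/v NIS, bottom-watered. Acetone, 187 l/ha track spray, 15–1000 g ai/ha. 0–100 injury score, day 14.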

[10] = system: green foxtail (Setaria viridis, SETVI); experiment: as above; conditions: post-emerge; for Post-emerge Herbicidal Activity SETVI: phytotoxicity rating 0-100 at 14 days after application; for SETVI phytotoxicity rating: 14 days after application, rating scale 0-100
In short: as §2

[11] = system: lambsquarters (Chenopodium album, CHEAL); experiment: as above; conditions: post-emerge, phytotoxicity rating 0-100 at 14 days after application
In short: as §2

[12] = system: ivyleaf morningglory (Ipomoea hederacea, IPOHE); experiment: as above; conditions: post-emerge; for Post-emerge Herbicidal Activity IPOHE: phytotoxicity rating 0-100 at 14 days after application; for IPOHE phytotoxicity rating: 14 days after application, rating scale 0-100
In short: as §2

[13] = system: sicklepod (Cassia obtusifolia, CASOB); experiment: as above; conditions: post-emerge; for Post-emerge Herbicidal Activity CASOB: phytotoxicity rating 0-100 at 14 days after application; for CASOB phytotoxicity rating: 14 days after application, rating scale 0-100
In short: as §2

[14] = system: barnyardgrass (Echinochloa crus-galli, ECHCG); experiment: as above; conditions: post-emerge; for Post-emerge Herbicidal Activity ECHCG: phytotoxicity rating 0-100 at 14 days after application; for ECHCG phytotoxicity rating: 14 days after application, rating scale 0-100
In short: as §2

[15] = system: redroot pigweed (Amaranthus retroflexus, AMARE); experiment: as above; conditions: post-emerge; for Post-emerge Herbicidal Activity AMARE: phytotoxicity rating 0-100 at 14 days after application; for AMARE phytotoxicity rating: 14 days after application, rating scale 0-100
In short: as §2

[16] = system: velvetleaf (Abutilon theophrasti, ABUTH); experiment: as above; conditions: post-emerge; for Post-emerge Herbicidal Activity ABUTH: phytotoxicity rating 0-100 at 14 days after application; for ABUTH phytotoxicity rating: 14 days after application, rating scale 0-100
In short: as §2

[17] = system: redroot pigweed (Amaranthus retroflexus, AMARE); experiment: Pre-emerge test, greenhouse herbicide activity screening; conditions: pre-emerge; for Pre-emerge Herbicidal Activity AMARE: phytotoxicity rating 0-100 at 14 days after application; for phytotoxicity rating AMARE: 14 days after application, scale 0-100
In short: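 Plants grown in 10 cm pots of sandy loam mix received acetone-dissolved compounds through a moving flat-fan nozzle. Doses ranged from 15 to 1000 g ai/ha. Pre-emerge pots were seeded one day earlier, post-emerge pots 8–21 days earlier. Fourteen days on, each pot was graded 0–100 for damage.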

[18] = system: field corn (Zea mays L., var. Dekalb 535, CORN); experiment: Pre-emerge test, crop safety; conditions: pre-emerge; for Pre-emerge Herbicidal Activity CORN: crop damage, phytotoxicity rating 0-100 at 14 days after application; for phytotoxicity rating CORN (crop damage): 14 days after application, scale 0-100
In short: (§3)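 Compounds in acetone were track-sprayed at 15-1000 g ai/ha (187 l/ha) on sandy loam pots: pre-emerge one day after seeding, post-emerge at 2-3 leaf stage with 0.25% v/v non-ionic surfactant. Phytotoxicity was rated 14 days later on a 0 (no damage) to 100 (complete death) scale.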

[19] = system: upland rice (Oryza sp., var. Tebonnet, RICE); experiment: Pre-emerge test, crop safety; conditions: pre-emerge; for Pre-emerge Herbicidal Activity RICE: crop damage, phytotoxicity rating 0-100 at 14 days after application; for phytotoxicity rating RICE (crop damage): 14 days after application, scale 0-100
In short: as §3

[20] = system: field corn (Zea mays L., var. Dekalb 535, CORN); experiment: Post-emerge test, crop safety; conditions: post-emerge; for Post-emerge Herbicidal Activity CORN: crop damage rating 0-100 at 14 days after application; for CORN phytotoxicity rating (crop damage): 14 days after application, rating scale 0-100
In short: as §1

[21] = system: upland rice (Oryza sp., var. Tebonnet, RICE); experiment: Post-emerge test, crop safety; conditions: post-emerge; for Post-emerge Herbicidal Activity RICE: crop damage rating 0-100 at 14 days after application; for RICE phytotoxicity rating (crop damage): 14 days after application, rating scale 0-100
In short: as §1

## COc1c(Cl)cc(F)c(-n2nnn(CCCF)c2=O)c1NC(=O)c1ccc2ccccc2c1 [Compound 5-26]
[1]; rate 63 g ai/ha
  Pre-emerge Herbicidal Activity DIGSA: 30
[1]; rate 250 g ai/ha
  Pre-emerge Herbicidal Activity DIGSA: 80
[2]; rate 63 g ai/ha
  Pre-emerge Herbicidal Activity SETVI: 60
[2]; rate 250 g ai/ha
  Pre-emerge Herbicidal Activity SETVI: 90
[3]; rate 63 g ai/ha
  Pre-emerge Herbicidal Activity CHEAL: 100
[3]; rate 250 g ai/ha
  Pre-emerge Herbicidal Activity CHEAL: 100
[4]; rate 63 g ai/ha
  Pre-emerge Herbicidal Activity IPOHE: 0
[4]; rate 250 g ai/ha
  Pre-emerge Herbicidal Activity IPOHE: 40
[5]; rate 63 g ai/ha
  Pre-emerge Herbicidal Activity SORHA: 0
[5]; rate 250 g ai/ha
  Pre-emerge Herbicidal Activity SORHA: 30
[6]; rate 63 g ai/ha
  Pre-emerge Herbicidal Activity CASOB: 10
[6]; rate 250 g ai/ha
  Pre-emerge Herbicidal Activity CASOB: 80
[7]; rate 63 g ai/ha
  Pre-emerge Herbicidal Activity ECHCG: 20
[7]; rate 250 g ai/ha
  Pre-emerge Herbicidal Activity ECHCG: 30
[8]; rate 63 g ai/ha
  Pre-emerge Herbicidal Activity ABUTH: 70
[8]; rate 250 g ai/ha
  Pre-emerge Herbicidal Activity ABUTH: 100
[9]; 63 g ai/ha
  Post-emerge Herbicidal Activity DIGSA: 20
[9]; 250 g ai/ha
  Post-emerge Herbicidal Activity DIGSA: 30
[10]; 63 g ai/ha
  Post-emerge Herbicidal Activity SETVI: 40
[10]; 250 g ai/ha
  Post-emerge Herbicidal Activity SETVI: 70
[11]; 63 g ai/ha
  Post-emerge Herbicidal Activity CHEAL: 100
[11]; 250 g ai/ha
  Post-emerge Herbicidal Activity CHEAL: 100
[12]; 63 g ai/ha
  Post-emerge Herbicidal Activity IPOHE: 90
[12]; 250 g ai/ha
  Post-emerge Herbicidal Activity IPOHE: 70
[13]; 63 g ai/ha
  Post-emerge Herbicidal Activity CASOB: 90
[13]; 250 g ai/ha
  Post-emerge Herbicidal Activity CASOB: 100
[14]; 63 g ai/ha
  Post-emerge Herbicidal Activity ECHCG: 20
[14]; 250 g ai/ha
  Post-emerge Herbicidal Activity ECHCG: 60
[15]; 63 g ai/ha
  Post-emerge Herbicidal Activity AMARE: 100
[15]; 250 g ai/ha
  Post-emerge Herbicidal Activity AMARE: 90
[16]; 63 g ai/ha
  Post-emerge Herbicidal Activity ABUTH: 100
[16]; 250 g ai/ha
  Post-emerge Herbicidal Activity ABUTH: 100
[17]; rate 63 g ai/ha
  Pre-emerge Herbicidal Activity AMARE: 100
[17]; rate 250 g ai/ha
  Pre-emerge Herbicidal Activity AMARE: 100
[18]; rate 63 g ai/ha
  Pre-emerge Herbicidal Activity CORN: 0
[18]; rate 250 g ai/ha
  Pre-emerge Herbicidal Activity CORN: 0
[19]; rate 63 g ai/ha
  Pre-emerge Herbicidal Activity RICE: 15
[19]; rate 250 g ai/ha
  Pre-emerge Herbicidal Activity RICE: 40
[20]; 63 g ai/ha
  Post-emerge Herbicidal Activity CORN: 10
[20]; 250 g ai/ha
  Post-emerge Herbicidal Activity CORN: 5
[21]; 63 g ai/ha
  Post-emerge Herbicidal Activity RICE: 50
[21]; 250 g ai/ha
  Post-emerge Herbicidal Activity RICE: 60

## COc1ccc(-n2c(=O)cc(C(F)(F)F)n(C)c2=O)c(NC(=O)c2ccc3ccccc3c2)c1 [2-143]
[1]; 63 g ai/ha
  phytotoxicity rating DIGSA: 30
[1]; 250 g ai/ha
  phytotoxicity rating DIGSA: 100
[2]; 63 g ai/ha
  phytotoxicity rating SETVI: 30
[2]; 250 g ai/ha
  phytotoxicity rating SETVI: 70
[3]; 63 g ai/ha
  phytotoxicity rating CHEAL: 100
[3]; 250 g ai/ha
  phytotoxicity rating CHEAL: 100
[4]; 63 g ai/ha
  phytotoxicity rating IPOHE: 0
[4]; 250 g ai/ha
  phytotoxicity rating IPOHE: 35
[5]; 63 g ai/ha
  phytotoxicity rating SORHA: 30
[5]; 250 g ai/ha
  phytotoxicity rating SORHA: 80
[6]; 63 g ai/ha
  phytotoxicity rating CASOB: 0
[6]; 250 g ai/ha
  phytotoxicity rating CASOB: 90
[7]; 63 g ai/ha
  phytotoxicity rating ECHCG: 30
[7]; 250 g ai/ha
  phytotoxicity rating ECHCG: 85
[8]; 63 g ai/ha
  phytotoxicity rating ABUTH: 100
[8]; 250 g ai/ha
  phytotoxicity rating ABUTH: 100
[9]; 63 g ai/ha
  DIGSA phytotoxicity rating: 0
[9]; 250 g ai/ha
  DIGSA phytotoxicity rating: 40
[10]; 63 g ai/ha
  SETVI phytotoxicity rating: 0
[10]; 250 g ai/ha
  SETVI phytotoxicity rating: 40
[12]; 63 g ai/ha
  IPOHE phytotoxicity rating: 60
[12]; 250 g ai/ha
  IPOHE phytotoxicity rating: 100
[13]; 63 g ai/ha
  CASOB phytotoxicity rating: 70
[13]; 250 g ai/ha
  CASOB phytotoxicity rating: 100
[14]; 63 g ai/ha
  ECHCG phytotoxicity rating: 0
[14]; 250 g ai/ha
  ECHCG phytotoxicity rating: 30
[15]; 63 g ai/ha
  AMARE phytotoxicity rating: 100
[15]; 250 g ai/ha
  AMARE phytotoxicity rating: 100
[16]; 63 g ai/ha
  ABUTH phytotoxicity rating: 100
[16]; 250 g ai/ha
  ABUTH phytotoxicity rating: 100
[17]; 63 g ai/ha
  phytotoxicity rating AMARE: 100
[17]; 250 g ai/ha
  phytotoxicity rating AMARE: 100
[18]; 63 g ai/ha
  phytotoxicity rating CORN (crop damage): 0
[18]; 250 g ai/ha
  phytotoxicity rating CORN (crop damage): 5
[19]; 63 g ai/ha
  phytotoxicity rating RICE (crop damage): 20
[19]; 250 g ai/ha
  phytotoxicity rating RICE (crop damage): 65
[20]; 63 g ai/ha
  CORN phytotoxicity rating (crop damage): 10
[20]; 250 g ai/ha
  CORN phytotoxicity rating (crop damage): 35
[21]; 63 g ai/ha
  RICE phytotoxicity rating (crop damage): 40
[21]; 250 g ai/ha
  RICE phytotoxicity rating (crop damage): 70
